Measured values: ChEMBL document CHEMBL1122843, “Opioid receptor interactions and conformations of the 6 alpha and 6 beta epimers of oxymorphamine. Solid-state conformation of 6 alpha-oxymorphamine” (J Med Chem, 1985)

Columns and labels:
[1] = target: Delta-type opioid receptor (Rattus norvegicus, UniProt P33533); experiment: Compound was evaluated for binding affinity against Opioid receptor delta 1 in rat brain membranes using [125I]-D-Ala2-Leu5-enkephalin; format: cell membranes; conditions: read-out: I50
Chain of Delta-type opioid receptor (P33533 whole entry): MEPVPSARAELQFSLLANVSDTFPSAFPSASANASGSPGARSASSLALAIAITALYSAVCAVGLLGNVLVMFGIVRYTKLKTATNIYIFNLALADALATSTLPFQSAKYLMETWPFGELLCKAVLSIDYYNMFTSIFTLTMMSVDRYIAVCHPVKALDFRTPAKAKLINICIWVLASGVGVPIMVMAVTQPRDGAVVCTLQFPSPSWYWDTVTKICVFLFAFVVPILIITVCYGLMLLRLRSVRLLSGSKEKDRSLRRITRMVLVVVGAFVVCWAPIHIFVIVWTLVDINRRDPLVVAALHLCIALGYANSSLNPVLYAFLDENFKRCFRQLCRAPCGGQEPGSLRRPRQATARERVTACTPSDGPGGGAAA

Mu-type opioid receptor = Mu-type opioid receptor (Rattus norvegicus, UniProt P33535); experiment: Compound was evaluated for binding affinity against Opioid receptor mu 1 in rat brain membranes using [125I]-Tyr-D-Ala-Gly-NMePhe-Met; format: cell membranes; conditions: read-out: I50
Chain of Mu-type opioid receptor (P33535 whole entry): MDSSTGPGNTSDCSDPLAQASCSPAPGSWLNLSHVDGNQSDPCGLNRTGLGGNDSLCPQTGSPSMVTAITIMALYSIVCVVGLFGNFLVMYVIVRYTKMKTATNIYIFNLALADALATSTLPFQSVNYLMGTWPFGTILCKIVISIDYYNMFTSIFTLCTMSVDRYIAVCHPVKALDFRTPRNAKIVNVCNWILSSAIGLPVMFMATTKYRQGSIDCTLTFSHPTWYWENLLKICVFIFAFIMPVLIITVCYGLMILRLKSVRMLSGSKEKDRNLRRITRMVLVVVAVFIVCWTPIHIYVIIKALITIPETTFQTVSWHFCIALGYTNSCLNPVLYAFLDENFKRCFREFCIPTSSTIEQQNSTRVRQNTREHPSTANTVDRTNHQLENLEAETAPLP

CN1CC[C@]23c4c5ccc(O)c4O[C@H]2[C@@H](N)CC[C@@]3(O)[C@H]1C5
IC50 [1]: 250 nM
IC50 (Mu-type opioid receptor): 13 nM

CN1CC[C@]23c4c5ccc(O)c4O[C@H]2[C@H](N)CC[C@@]3(O)[C@H]1C5
IC50 [1]: 110 nM
IC50 (Mu-type opioid receptor): 9 nM
